Tested on: plantar warts
Assay: Treatment of plantar warts on a patient's feet with in situ polymeric film versus freezing
Assay type: in vivo, human
Protocol: A patient presents to a dermatologist with two similar plantar warts on the soles of their left and right feet. The wart on the right foot is treated by freezing with liquid nitrogen.

Compound: N#N [liquid nitrogen]
- pain caused by the treatment (freeze burn) (plantar wart on sole of foot): makes walking on the foot painful for several days
- time until the wart resolves (plantar wart on sole of foot, film re-applied every 3-4 days): 3 weeks
- return of the wart after resolution (plantar wart, film treatment continued two weeks after resolution): has returned after two months

Reference: patent US20030143189A1, “Therapy for topical diseases” (priority 2001, published 2003)
